Experimental data: publication PMC7066533 (Frontiers in Pharmacology, 2020)
Where “and” joins values, the source holds several entries; their conditions need not be identical. Equal values may be shown once. Read-outs that look alike come from different tables or passages of the source. Square brackets hold non-standard residues; d marks the D form. Peptide text beside a SMILES is read from it. βAla = NCCC(=O)O

Experiments:
U87-MG cells = experiment: Cell proliferation assay ([3H]-thymidine incorporation) in U87-MG cells; assay type: cell-based, human
Method: A cell proliferation assay was carried out as previously reported ([Bedini et al., 2017]). Briefly, U87-MG cells or normal human astrocytes were plated on a 12-well plate and treated as described in the results section or maintained in cell culture medium containing 10% fetal bovine serum. Five hours before the end of the treatments, [methyl-^3H] thymidine (Perkin Elmer) (50 nM final concentration) was added to serum-free cell culture medium, and the plate was incubated at 37°C. Thereafter, the medium was removed, and the cells were washed twice with PBS. Then, 200 μl of PBS was added to each well, and the cells were scraped off and centrifuged at 13,000 g for 3 min at 4°C. The supernatants were then discarded, pellets were re-suspended in 500 μl of cold trichloroacetic acid (10% w/v), incubated on ice for 20 min and centrifuged at 13,000 g for 3 min at 4°C. The supernatant was then discarded, and the pellet was suspended in 500 μl of cold methanol and centrifuged at 3 min for 13,000 g at 4°C. Thereafter, the pellet was suspended in 200 μl of 1 N NaOH and heated at 55°C for 10 min. Samples were then neutralized with 200 μl of 1 N HCl and 350 μl of the labelled DNA incubated in counting vials with 4 ml of Filter Count scintillation liquid (Perkin Elmer Italia). Vials were vortexed and incubated overnight at room temperature, and the radioactivity was determined by liquid scintillation spectrometry.

CD-1 adult male mice [1] = experiment: Warm-water tail-withdrawal test; assay type: in vivo, mouse
Method: The warm-water tail-withdrawal test was performed as previously described ([Bedini et al., 2010]). Briefly, a mouse’s tail was immersed in hot water (52 ± 0.5°C), and the latency to tail withdrawal was measured as an indicator of nociception. Prior to being treated, each mouse was tested, and the latency to tail withdrawal was recorded (control latency, CL). Animals not withdrawing their tails within 5 s were not used (6% of mice). Responding animals were then injected i.p. with either vehicle or one of the compounds (LOR17 or U50,488; 0–20 mg/kg). The KOR antagonist norBNI (10 mg/kg; i.p.) was injected 30 min or 24 h prior to administering LOR17.
Latency to withdrawal was measured at 5, 15, 30, 45, 60, and 90 min after drug administration and defined as the test latency (TL), with a cutoff time of 10 s.

ERK1/2 phosphorylation = experiment: ERK1/2 phosphorylation, western blot; assay type: cell-based, human
Method: HEK-293 cells stably expressing KOPr, U87-MG astrocytoma cells, or normal human astrocytes endogenously expressing KOPr were plated into 6-well plates until 60–70% confluence was reached. Then, the cells were serum-starved for 16–18 h and subsequently exposed to vehicle, LOR17 (1 μM; 0–120 min) or U50,488 (1 μM; 0–120 min). Alternatively, […] and U87-MG cells were exposed to norBNI (10 μM; 30 min prior to LOR17) and then treated with 1 μM LOR17, or they were exposed to increasing concentration of LOR17 (1–100 μM; 30 min). Proteins were extracted as previously reported ([Kuhar et al., 2015]), quantified by means of BCA assay (Pierce) and SDS-page gel electrophoresis performed as previously described for ERK1/2 ([Baiula et al., 2016]) and p38MAPK ([Schattauer et al., 2012]).
Membranes were then incubated with anti-phospho-ERK 1/2 (1:1,000) (Cell Signaling Technology, Danvers, MA, USA), anti-total ERK1/2 antibodies (1:1,000) (Cell Signaling Technology), anti-phospho-p38MAPK antibodies (1:1,000) (Cell Signaling Technology, Danvers, MA, USA), or anti-actin antibodies (1:2,500) (Santa Cruz Biotechnology, Dallas, TX, USA) at 4°C in the presence of BSA (5 g/100 ml) in Tris buffered saline containing Tween-20 (0.1 g/100 ml). […]

hKOPr = assay type: cell-based, human
CD-1 adult male mice [2] = settings: mouse, in vivo
CD-1 adult male mice [3] = settings: mouse, in vivo; remark: listed apart in the source
hDOPr = target: T1, hDOPr (Homo sapiens, UniProt P41143); experiment: Displacement binding assay with [3H]diprenorphine on HEK-293/hDOPr membranes
T1 construct: expressed in transfected cells
T1 sequence (P41143 whole entry): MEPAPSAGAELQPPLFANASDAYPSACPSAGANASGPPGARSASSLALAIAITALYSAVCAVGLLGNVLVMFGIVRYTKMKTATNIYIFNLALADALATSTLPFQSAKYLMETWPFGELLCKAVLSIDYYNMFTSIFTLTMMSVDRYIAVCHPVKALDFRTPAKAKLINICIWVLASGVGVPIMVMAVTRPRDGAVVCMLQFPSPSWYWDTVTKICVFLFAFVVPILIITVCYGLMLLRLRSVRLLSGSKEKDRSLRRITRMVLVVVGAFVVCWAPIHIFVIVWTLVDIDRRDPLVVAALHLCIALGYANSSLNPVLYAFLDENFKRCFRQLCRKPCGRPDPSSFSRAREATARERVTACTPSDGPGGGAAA

[4] = target: KOPr in normal human astrocytes (Homo sapiens, UniProt P41145); experiment: cell-based; settings: read-out: Emax NHA
KOPr in normal human astrocytes, sequence (P41145 whole entry): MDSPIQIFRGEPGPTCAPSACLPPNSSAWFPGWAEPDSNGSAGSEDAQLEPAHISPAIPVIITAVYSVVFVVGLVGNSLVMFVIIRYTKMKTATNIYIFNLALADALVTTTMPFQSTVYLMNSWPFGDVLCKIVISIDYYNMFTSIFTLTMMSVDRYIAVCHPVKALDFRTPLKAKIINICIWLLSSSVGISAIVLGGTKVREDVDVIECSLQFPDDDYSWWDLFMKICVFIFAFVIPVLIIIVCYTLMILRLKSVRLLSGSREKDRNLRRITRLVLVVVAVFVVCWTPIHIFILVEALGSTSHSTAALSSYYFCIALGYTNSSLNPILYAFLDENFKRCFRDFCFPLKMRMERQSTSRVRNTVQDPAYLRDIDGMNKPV

p38MAPK phosphorylation = assay type: cell-based, human
KOPr [5] = target: T2, KOPr (Homo sapiens, UniProt P41145); assay type: cell-based
T2 sequence (P41145 whole entry): as above

CD-1 adult male mice [6] = experiment: Hole-board test; assay type: in vivo, mouse; settings: 10 mg/kg s.c.
Method: The hole-board test consisted of a […] plane with 16 flush-mounted cylindrical holes (3 cm diameter) distributed four by four in an equidistant, grid-like manner. Mice were placed on the center of the board one by one and allowed to move about freely for a period of 5 min. Two electric eyes, crossing the plane from midpoint to midpoint of the opposite sides, thus dividing the plane into four equal quadrants, automatically signaled the movement of the animal (counts in 5 min) on the surface of the plane (spontaneous motility). Miniature photoelectric cells in each of the 16 holes recorded (counts in 5 min) the exploration of the holes (exploratory activity) by the mice ([Guerrini et al., 2006]).

[7] = target: KOPr in U87-MG human astrocytoma cells (Homo sapiens, UniProt P41145); experiment: cell-based; settings: U-87 MG, read-out: Emax U87-MG
KOPr in U87-MG human astrocytoma cells, sequence (P41145 whole entry): as above

hMOPr = target: T3, hMOPr (Homo sapiens, UniProt P35372); experiment: Displacement binding assay with [3H]DAMGO on HEK-293/hMOPr membranes
T3 construct: expressed in transfected cells
T3 sequence (P35372 whole entry): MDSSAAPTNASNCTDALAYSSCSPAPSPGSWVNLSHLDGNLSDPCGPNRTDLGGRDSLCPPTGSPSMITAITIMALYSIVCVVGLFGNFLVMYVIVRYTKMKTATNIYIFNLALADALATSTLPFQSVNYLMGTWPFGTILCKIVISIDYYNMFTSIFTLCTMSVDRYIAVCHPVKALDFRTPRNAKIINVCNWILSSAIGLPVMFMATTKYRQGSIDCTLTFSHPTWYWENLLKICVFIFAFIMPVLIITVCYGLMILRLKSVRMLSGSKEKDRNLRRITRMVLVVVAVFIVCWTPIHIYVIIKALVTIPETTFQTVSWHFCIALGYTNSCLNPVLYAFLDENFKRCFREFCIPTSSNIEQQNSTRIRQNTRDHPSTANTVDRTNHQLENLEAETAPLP

KOPr [8] = target: T2, KOPr; experiment: cell-based
CD-1 adult male mice [9] = settings: mouse, in vivo; remark: listed apart in the source
normal human astrocytes = assay type: cell-based; settings: SB203580 2 µM, 30 min prior to U50,488
[10] = norBNI 10 µM 15 min prior, SB203580 2 µM 30 min prior, LOR17 10 μM co-administered

Oc1ccc2c3c1O[C@H]1c4[nH]c5c(c4C[C@@]4(O)[C@@H](C2)N(CC2CC2)CC[C@]314)C[C@@]1(O)[C@H]2Cc3ccc(O)c4c3[C@@]1(CCN2CC1CC1)[C@H]5O4 [norBNI, norbinaltorphimine, reference compound]
Effect on U50,488 (1 µM)-mediated increase of U87-MG cell proliferation (U87-MG cells; [10]): prevented
Effect on LOR17-mediated antinociception in the tail-withdrawal test (CD-1 adult male mice [1]; norBNI 10 mg/kg i.p.): prevented
LOR17 (1 μM)-mediated increase in ERK1/2 phosphorylation after antagonist (ERK1/2 phosphorylation; norBNI 10 μM, 30 min prior to LOR17, HEK-293/hKOPr and U87-MG cells): fully reverted

O=C1CNC(=O)[C@H](Cc2ccccc2)NC(=O)[C@@H](Cc2c[nH]c3ccccc23)NC(=O)CCN1 [LOR17, c[Phe-Gly-(β-Ala)-D-Trp]] (cyclo(FG[βAla][dW]))
Effect on U50,488 (1 µM)-mediated increase of U87-MG cell proliferation (U87-MG cells): prevented the increase in U87-MG cell proliferation
U87-MG cell proliferation rate vs vehicle (U87-MG cells): did not alter the U87-MG cell proliferation rate
Bias Factor (hKOPr): 853
ΔΔlog(τ/KA) (hKOPr): 2,931
Effect on oxaliplatin-induced thermal hypersensitivity, single s.c. administration (CD-1 adult male mice [2]): fully reversed the oxaliplatin-dependent hypersensitivity
Efficacy in cold plate test after repeated treatment (CD-1 adult male mice [2]): maintains its efficacy
Licking latency (maximal effect) (CD-1 adult male mice [2]): 18.2 ± 1.4 s and 19.6 ± 1.7 s
Dose from which licking latency increase takes effect (CD-1 adult male mice [2]; sc): 1 mg/kg
ED50, oxaliplatin-induced thermal hypersensitivity (cold plate test) (CD-1 adult male mice [2]; sc): 6.63 ± 0.23 mg/kg
Number of writhes vs vehicle (CD-1 adult male mice [3]): significantly reduced the number of writhes
ED50, writhing test (CD-1 adult male mice [3]; ip): 5.74 ± 0.46 mg/kg
Ki (hDOPr): > 100 µM
Emax [4]: 88 ± 6%
Effect on U50,488-induced p38MAPK phosphorylation (p38MAPK phosphorylation): counteracted U50,488-induced p38MAPK phosphorylation in a concentration-dependent fashion
p38MAPK phosphorylation vs vehicle (p38MAPK phosphorylation): does not influence p38MAPK phosphorylation
log(τ/KA) β-arrestin 2 (KOPr [5]): 3,432
Δlog(τ/KA) β-arrestin 2 (KOPr [5]): -2,67
β-arrestin 2 recruitment at KOPr (KOPr [5]): very week β-arrestin 2 recruitment at KOPr and only at concentrations higher than 1 μM
Board (locomotor activity) (CD-1 adult male mice [6]; 0 min): 89.2 ± 7.3 counts in 5 min
Hole (exploratory activity) (CD-1 adult male mice [6]; 0 min): 37.2 ± 3.9 counts in 5 min
Board (locomotor activity) (CD-1 adult male mice [6]; 30 min): 97.2 ± 16.9 counts in 5 min
Hole (exploratory activity) (CD-1 adult male mice [6]; 30 min): 39.0 ± 4.6 counts in 5 min
Emax [7]: 87 ± 4%
Ki (hMOPr): > 100 µM
log(τ/KA) G Protein (KOPr [8]): 8,856
Δlog(τ/KA) G Protein (KOPr [8]): 0,261
Emax (KOPr [8]; HEK293, read-out: Emax HEK-293/KOR): 85 ± 5%
Mobility time (CD-1 adult male mice [9]): 91.6 ± 12.3 s
Antinociception in the tail-withdrawal test (CD-1 adult male mice [1]; mouse, in vivo): antinociceptive response in a dose- and time-dependent fashion
ED50, warm-water tail-withdrawal test (CD-1 adult male mice [1]; mouse, in vivo, ip): 10.07 ± 0.36 mg/kg
ERK1/2 phosphorylation levels vs vehicle (ERK1/2 phosphorylation): significant increase in ERK1/2 phosphorylation only after 15 min of exposure

C[S+]([O-])c1ccc(-c2nc(-c3ccncc3)c(-c3ccc(F)cc3)[nH]2)cc1 (stereo not drawn) [SB203580, reference compound]
Effect on U50,488 (1 µM)-enhanced normal human astrocyte cell proliferation (normal human astrocytes): abolished
Effect on U50,488 (1 µM)-mediated increase of U87-MG cell proliferation (U87-MG cells; [10]): prevented
